{
  "source": "paper PMC9146474",
  "about": "“3-(((1S,3S)-3-((R)-Hydroxy(4-(trifluoromethyl)phenyl)methyl)-4-oxocyclohexyl)methyl)pentane-2,4-dione: Design and Synthesis of New Stereopure Multi-Target Antidiabetic Agent” (Molecules, 2022)",
  "key": {"α-glucosidase": {"target": "α-glucosidase (Saccharomyces cerevisiae, UniProt P53341)", "sequence (P53341 whole entry)": "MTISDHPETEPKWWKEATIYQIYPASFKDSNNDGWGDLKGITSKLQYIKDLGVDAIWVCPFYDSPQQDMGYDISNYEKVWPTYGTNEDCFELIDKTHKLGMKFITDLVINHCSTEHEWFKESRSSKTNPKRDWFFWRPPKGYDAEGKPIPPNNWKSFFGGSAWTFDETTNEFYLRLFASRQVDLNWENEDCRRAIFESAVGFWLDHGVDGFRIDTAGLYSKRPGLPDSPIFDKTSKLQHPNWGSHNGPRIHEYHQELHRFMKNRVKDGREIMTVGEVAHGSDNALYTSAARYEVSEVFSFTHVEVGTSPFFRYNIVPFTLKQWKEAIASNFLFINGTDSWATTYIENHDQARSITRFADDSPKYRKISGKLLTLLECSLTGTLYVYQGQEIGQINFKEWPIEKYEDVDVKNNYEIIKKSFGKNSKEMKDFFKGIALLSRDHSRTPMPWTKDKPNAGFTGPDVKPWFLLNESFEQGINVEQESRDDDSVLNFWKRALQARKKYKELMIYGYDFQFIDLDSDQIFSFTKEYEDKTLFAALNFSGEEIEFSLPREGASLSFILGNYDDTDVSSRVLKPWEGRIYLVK", "format": "biochemical", "experimental": "The α-glucosidase inhibitory activity on the S,S,R-5 was performed as per the reported protocols. […] The α-glucosidase solution (0.5 units/mL) was prepared in phosphate buffer (0.1 M, 6.90 pH). p-Nitrophenyl-α-D-glucopyranoside (5 mM) was added as substrate solution to the buffer solution. Different concentrations of the compound, i.e., 500, 250, 125, 62.5, and 31.25 μM were prepared. The enzyme solutions were mixed with the compound’s solution and were incubated for 15 min at 37 °C. To these solutions were added the pre-prepared substrate solution and the repetition of incubation. The final reaction was completed with the addition of sodium carbonate solution (0.2 M, 80 μL). The combined solution excluding the α-glucosidase was used as a blank solution. The absorbances of the solutions were recorded at 405 nm. The observations were repeated three times. The percent inhibitions at each concentration and the IC50 values were calculated according to the standard formula [48]."}, "α-amylase": {"target": "α-amylase", "assay": "In-vitro α-amylase inhibition", "format": "biochemical", "experimental": "The potential of stereopure S,S,R-5 against the α-amylase was also determined as per the protocols. The enzyme solution was prepared in the phosphate buffer and was mixed with different concentrations of the compound to allow the reaction. All the solutions were incubated as per the method. Dinitrosalicylic acid was added to the compound and standard solutions. The respective solutions were heated in water baths for a few minutes. The absorbances of the solutions were recorded at 656 nm. The observations were repeated three times. The percent inhibitions at each concentration and the IC50 values were calculated according to the standard formula [50]."}, "[1]": {"target": "T1, protein tyrosine phosphatase 1B (PTP-1B) (Homo sapiens, UniProt P18031)", "T1 sequence (P18031 1-435)": "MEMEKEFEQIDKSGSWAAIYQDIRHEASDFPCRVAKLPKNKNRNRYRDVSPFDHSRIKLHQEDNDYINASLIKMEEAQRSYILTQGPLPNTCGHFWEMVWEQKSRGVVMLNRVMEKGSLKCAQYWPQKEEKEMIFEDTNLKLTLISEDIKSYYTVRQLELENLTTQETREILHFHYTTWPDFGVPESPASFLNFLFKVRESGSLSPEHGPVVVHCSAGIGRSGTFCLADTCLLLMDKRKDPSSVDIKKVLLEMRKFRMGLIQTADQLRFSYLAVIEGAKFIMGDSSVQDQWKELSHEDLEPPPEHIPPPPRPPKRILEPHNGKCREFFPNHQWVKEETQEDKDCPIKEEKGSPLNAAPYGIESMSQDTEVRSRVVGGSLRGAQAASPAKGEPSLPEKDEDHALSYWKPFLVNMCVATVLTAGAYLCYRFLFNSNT", "assay": "Protein tyrosine phosphatase 1B inhibition", "format": "biochemical", "details": "for inhibition at 31.25 µM: 31.25 μM/mL; for inhibition at 31.25 µM / inhibition at 62.5 µM / inhibition at 125 µM / inhibition at 250 µM: read-out: PTP-1B Percent Inhibition (converted); for inhibition at 62.5 µM: 62.5 μM/mL; for inhibition at 125 µM: 125 μM/mL; for inhibition at 250 µM: 250 μM/mL; for inhibition at 500 µM: 500 μM/mL", "experimental": "A buffer solution with pH 7 of 3,3-dimethyl glutarate was used. […] All the solutions were incubated at 27 °C for 40 min. The absorbances of the solutions were recorded at 405 nm. The observations were repeated three times. The percent inhibitions at each concentration and the IC50 values were calculated according to the standard formula."}, "[2]": {"assay": "DPPH free radical scavenging assay (antioxidant assay)", "experimental": "To supplement the role of free radicals in diabetes, the free radical scavenging potential of compound S,S,R-5 was also determined as per the standard method. Different concentrations of the stereopure compound were prepared and DPPH solution in methanol (0.004%) were added to it. The solutions were incubated for half an hour. The absorbances of the solutions were recorded at 517 nm. The observations were repeated three times. The percent inhibitions at each concentration and the IC50 values were calculated according to the standard formula [52]."}, "albino mice": {"tested_on": "albino mice", "details": "mouse, in vivo", "experimental": "We also tested the toxicity profile of our compound S,S,R-5 by using the simple acute toxicity test in experimental albino mice. The mice were acquired and used in the animal house of our university as per the standard guidelines of the departmental ethical committee. As per the standard procedure, we gave various concentrations of compound S,S,R-5 to albino mice and observed them for the next 72 h."}, "[3]": {"details": "500 μM/mL, listed as minor diastereomer (S,S,R-5)"}},
  "data": [
    {"smiles": "C[C@H]1O[C@H](O[C@H]2[C@H](O)[C@@H](O)[C@@H](O[C@H]3[C@H](O)[C@@H](O)C(O)O[C@@H]3CO)O[C@@H]2CO)[C@H](O)[C@@H](O)[C@@H]1N[C@H]1C=C(CO)[C@@H](O)[C@H](O)[C@H]1O", "note": "(some centres unmarked) [Acarbose]", "values": [
      {"measurement": "α-Glucosidase % Inhibition", "setting": "α-glucosidase", "value": "95.20 ± 0.15 91.17 ± 0.53 86.98 ± 0.85 81.20 ± 0.65 77.80 ± 0.37%"},
      {"measurement": "α-Glucosidase Percent Inhibition", "setting": "α-glucosidase", "value": "95.20 ± 0.15 91.17 ± 0.53 86.98 ± 0.85 81.20 ± 0.65 77.80 ± 0.37%"}
    ]},
    {"smiles": "CC(=O)C(C[C@H]1CCC(=O)[C@H]([C@@H](O)c2ccc(C(F)(F)F)cc2)C1)C(C)=O", "note": "[S,S,R-5, 3-(((1S,3S)-3-((R)-hydroxy(4-(trifluoromethyl)phenyl)methyl)-4-oxocyclohexyl)methyl)pentane-2,4-dione]", "values": [
      {"measurement": "IC50", "setting": "α-amylase", "value": "4.58 ± 0.14", "unit": "µM"},
      {"measurement": "α-Amylase Percent Inhibition", "setting": "α-amylase; 31.25 μM/mL", "value": "58.47 ± 0.56", "unit": "%"},
      {"measurement": "α-Amylase Percent Inhibition", "setting": "α-amylase; 62.5 μM/mL", "value": "62.28 ± 0.57", "unit": "%"},
      {"measurement": "α-Amylase Percent Inhibition", "setting": "α-amylase; 125 μM/mL", "value": "68.90 ± 0.96", "unit": "%"},
      {"measurement": "α-Amylase Percent Inhibition", "setting": "α-amylase; 250 μM/mL", "value": "73.08 ± 0.47", "unit": "%"},
      {"measurement": "IC50", "setting": "[1]", "value": "0.91 ± 0.1", "unit": "µM"},
      {"measurement": "inhibition at 31.25 µM", "setting": "[1]", "value": 73.7, "unit": "%"},
      {"measurement": "inhibition at 62.5 µM", "setting": "[1]", "value": 76.2, "unit": "%"},
      {"measurement": "inhibition at 125 µM", "setting": "[1]", "value": 79.6, "unit": "%"},
      {"measurement": "inhibition at 250 µM", "setting": "[1]", "value": 84.4, "unit": "%"},
      {"measurement": "IC50", "setting": "[2]", "value": "2.36 ± 0.1", "unit": "µM"},
      {"measurement": "DPPH Percent Inhibition", "setting": "[2]; 31.25 μM/mL", "value": "71.90 ± 0.45", "unit": "%"},
      {"measurement": "DPPH Percent Inhibition", "setting": "[2]; 62.5 μM/mL", "value": "76.00 ± 0.30", "unit": "%"},
      {"measurement": "DPPH Percent Inhibition", "setting": "[2]; 125 μM/mL", "value": "81.90 ± 0.60", "unit": "%"},
      {"measurement": "DPPH Percent Inhibition", "setting": "[2]; 250 μM/mL", "value": "87.45 ± 0.90", "unit": "%"},
      {"measurement": "Acute toxicity: behavioral changes or lethality", "setting": "albino mice", "value": "no unwanted behavioral changes or lethality"}
    ]},
    {"smiles": "C[C@H]1[C@H](C)CC[C@]2(C(=O)O)CC[C@]3(C)C(=CC[C@@H]4[C@@]5(C)CC[C@H](O)C(C)(C)[C@@H]5CC[C@]43C)[C@H]12", "note": "[Ursolic acid, reference compound]", "values": [
      {"measurement": "inhibition at 31.25 µM", "setting": "[1]", "value": 76, "unit": "%"},
      {"measurement": "inhibition at 62.5 µM", "setting": "[1]", "value": 78.3, "unit": "%"},
      {"measurement": "inhibition at 125 µM", "setting": "[1]", "value": 82.3, "unit": "%"},
      {"measurement": "inhibition at 250 µM", "setting": "[1]", "value": 87.2, "unit": "%"},
      {"measurement": "inhibition at 500 µM", "setting": "[1]", "value": "90.83 ± 0.47", "unit": "%"}
    ]},
    {"smiles": "CC(=O)C(CC1CCC(=O)C(C(O)c2ccc(C(F)(F)F)cc2)C1)C(C)=O", "note": "[minor (S,S,R-5)]", "values": [
      {"measurement": "α-Amylase % Inhibition", "setting": "α-amylase; [3]", "value": 72.65, "unit": "%"},
      {"measurement": "inhibition at 500 µM", "setting": "[1]", "value": 65.4, "unit": "%"},
      {"measurement": "DPPH % Inhibition", "setting": "[2]; [3]", "value": 70.21, "unit": "%"}
    ]}
  ]
}
